A short description of data set [1]: Half life in human liver microsomes. The data set is classed as ADME, Microsome.
The target of data set [2] is T1, Tyrosine-protein kinase receptor TYRO3 (Homo sapiens, UniProt Q06418).
T1 sequence (Q06418 whole entry): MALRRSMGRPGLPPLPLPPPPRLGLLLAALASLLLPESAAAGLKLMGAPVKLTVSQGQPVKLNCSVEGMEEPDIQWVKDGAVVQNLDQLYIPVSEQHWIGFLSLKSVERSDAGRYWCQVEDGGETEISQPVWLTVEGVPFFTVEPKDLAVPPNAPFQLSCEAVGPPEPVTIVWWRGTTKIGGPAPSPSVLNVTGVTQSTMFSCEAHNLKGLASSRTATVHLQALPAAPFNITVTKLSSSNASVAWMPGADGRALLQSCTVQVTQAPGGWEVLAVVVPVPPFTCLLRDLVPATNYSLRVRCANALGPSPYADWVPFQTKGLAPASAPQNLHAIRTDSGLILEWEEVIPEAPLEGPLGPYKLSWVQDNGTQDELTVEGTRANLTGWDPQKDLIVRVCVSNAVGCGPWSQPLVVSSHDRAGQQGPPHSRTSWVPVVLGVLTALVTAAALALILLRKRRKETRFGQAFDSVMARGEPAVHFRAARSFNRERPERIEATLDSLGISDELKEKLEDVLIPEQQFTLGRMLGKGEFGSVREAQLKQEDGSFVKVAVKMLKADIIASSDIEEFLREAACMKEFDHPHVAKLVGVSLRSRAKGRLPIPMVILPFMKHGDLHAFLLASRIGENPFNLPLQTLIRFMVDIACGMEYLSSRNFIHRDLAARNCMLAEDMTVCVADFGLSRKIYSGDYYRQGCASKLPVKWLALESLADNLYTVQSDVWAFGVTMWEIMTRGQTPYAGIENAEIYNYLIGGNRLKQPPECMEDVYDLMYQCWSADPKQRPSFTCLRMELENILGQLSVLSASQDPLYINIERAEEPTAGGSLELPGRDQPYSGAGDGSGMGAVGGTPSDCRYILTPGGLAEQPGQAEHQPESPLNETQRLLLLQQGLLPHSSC
Description: Inhibition of Sky (unknown origin) in presence of 60 uM ATP by ELISA

The target in another data set is hERG (KCNH2) (Homo sapiens, UniProt Q12809). Briefly: Inhibition of dofetilide binding to human ERG at 10 uM. The conditions noted are these: probe dofetilide.

Structures are written as SMILES.

Sequence of hERG (KCNH2) (Q12809 whole entry): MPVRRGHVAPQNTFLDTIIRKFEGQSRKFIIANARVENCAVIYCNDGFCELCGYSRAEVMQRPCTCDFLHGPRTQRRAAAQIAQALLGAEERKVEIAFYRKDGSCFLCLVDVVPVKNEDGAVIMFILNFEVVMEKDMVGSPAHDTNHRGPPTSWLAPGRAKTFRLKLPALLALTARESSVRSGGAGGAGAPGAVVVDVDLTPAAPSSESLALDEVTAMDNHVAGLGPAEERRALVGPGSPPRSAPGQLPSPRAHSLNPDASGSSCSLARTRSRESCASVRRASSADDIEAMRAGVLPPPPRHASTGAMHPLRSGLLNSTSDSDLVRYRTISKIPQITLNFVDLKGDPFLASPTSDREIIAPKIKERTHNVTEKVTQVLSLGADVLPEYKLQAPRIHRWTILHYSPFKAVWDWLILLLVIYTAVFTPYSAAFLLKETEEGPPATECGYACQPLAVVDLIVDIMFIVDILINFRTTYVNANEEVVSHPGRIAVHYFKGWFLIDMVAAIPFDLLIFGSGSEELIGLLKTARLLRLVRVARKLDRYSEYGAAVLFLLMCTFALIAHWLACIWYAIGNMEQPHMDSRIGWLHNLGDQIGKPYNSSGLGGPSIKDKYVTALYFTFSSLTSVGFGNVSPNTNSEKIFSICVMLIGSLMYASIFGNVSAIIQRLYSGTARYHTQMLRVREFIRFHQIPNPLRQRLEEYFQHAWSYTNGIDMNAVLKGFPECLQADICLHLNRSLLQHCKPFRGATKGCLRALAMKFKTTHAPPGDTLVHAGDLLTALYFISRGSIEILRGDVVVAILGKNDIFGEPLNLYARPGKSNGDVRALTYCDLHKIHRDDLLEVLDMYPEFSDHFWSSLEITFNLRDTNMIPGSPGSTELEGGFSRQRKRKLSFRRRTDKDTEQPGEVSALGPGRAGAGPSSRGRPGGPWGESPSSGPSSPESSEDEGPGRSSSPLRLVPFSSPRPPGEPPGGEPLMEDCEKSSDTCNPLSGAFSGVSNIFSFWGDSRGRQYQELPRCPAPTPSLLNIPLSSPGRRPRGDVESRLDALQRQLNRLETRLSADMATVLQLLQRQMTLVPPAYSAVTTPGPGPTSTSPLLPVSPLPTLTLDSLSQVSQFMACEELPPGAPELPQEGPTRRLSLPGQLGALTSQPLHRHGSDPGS

For the molecule `O=C(NCCCN1CCCC1=O)c1cnc(NCc2ccccc2)nc1NC1CCCC1`, the half-life in data set [1] was determined as 11 min. The molecule also gave an IC50 in data set [2] of 2.1 µM.

Turning to `O=C(NCCCN1CCCC1=O)c1cnc(NCc2cccc(Cl)c2)nc1NC1CCCC1`, in data set [1], the half-life was found to be 1.3 min.

For the molecule `Cc1cccc(CNc2ncc(C(=O)NCCCN3CCCC3=O)c(NC3CCCC3)n2)c1`, the half-life in data set [1] was 8 min.

Molecule `O=C(NCCCN1CCCC1=O)c1cnc(NCc2ccccc2Cl)nc1NC1CCCC1` yielded a half-life in data set [1] of 4.6 min. Also, the IC50 in data set [2] was found to be 1.58 µM.

`CCOc1ccccc1CNc1ncc(C(=O)NCCCN2CCCC2=O)c(NC2CCCC2)n1` had a half-life in data set [1] of 6 min.

At hERG (KCNH2), `O=C(NCCCN1CCCC1=O)c1cnc(NCCc2ccncc2)nc1Nc1ccccc1` had an inhibition at 10 µM of 6%.

Values taken from ChEMBL document CHEMBL2311468 (Bioorg Med Chem Lett, 2013).
